In the assay the test system is Botrytis cinerea (B05.10). Kind of assay: Resazurin antifungal assay of 180 alpha-factor peptide variants towards Botrytis (Example 2). Set-up: key to active against Botrytis at 15 μM / active against Botrytis at 10 μM: Peptides that showed greater than 90% inhibition were considered active against Botrytis. Format: cell-based. Conditions: for Inhibition at 50 μM / Inhibition at 100 μM / Inhibition at 10 μM / Inhibition at 20 μM / Inhibition at 15 μM: % inhibition of fungal growth, Botrytis conidia, resazurin; for Inhibition at 50 μM: peptide 50 μM; for Inhibition at 100 μM: peptide 100 μM; for Inhibition at 10 μM: peptide 10 μM; for Inhibition at 20 μM: peptide 20 μM. The procedure, abridged:
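B. cinerea B05.10 conidia (5000/well) were exposed to peptides at 100, 50, 20, 15 and 10 μM final for 24 h at 20° C. Resazurin was then added and fluorescence read at 570/620 nm. Percent growth inhibition was calculated against conidia-only wells, with four technical replicates.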
(Resazurin is reduced to fluorescent resorufin, in cell work by metabolically active cells.)

Peptide text beside a SMILES is read from it.

The Inhibition is the share of the control response that was lost under treatment. Turning to `CSCC[C@H](NC(=O)[C@@H]1CCCN1C(=O)[C@H](CCC(N)=O)NC(=O)CNC(=O)[C@@H]1CCCN1C(=O)[C@H](CCCCN)NC(=O)[C@H](CC(C)C)NC(=O)[C@H](CCCNC(=N)N)NC(=O)[C@H](CC(C)C)NC(=O)[C@H](Cc1ccccc1)NC(=O)[C@H](Cc1c[nH]cn1)NC(=O)[C@@H]1CCCN1)C(=O)N[C@@H](Cc1ccc(O)cc1)C(=O)O` [compound 112] (H-PHFLRLKPGQPMY-OH; N-terminus and C-terminus assumed), the “Inhibition at 50 μM” value is recorded as less than 90% and the “Inhibition at 100 μM” value was 99.57%.
`CC[C@H](C)[C@H](NC(=O)[C@H](CCC(N)=O)NC(=O)[C@@H](NC(=O)[C@H](Cc1c[nH]c2ccccc12)NC(=O)[C@H](Cc1c[nH]cn1)NC(=O)[C@@H]1CCCN1)C(C)C)C(=O)N[C@@H](CCCCN)C(=O)N[C@@H](CC(C)C)C(=O)NCC(=O)N[C@@H](CCC(N)=O)C(=O)N1CCC[C@H]1C(=O)N[C@@H](CCSC)C(=O)N[C@@H](Cc1ccc(O)cc1)C(=O)O` [compound 10] (H-PHWVQIKLGQPMY-OH; N-terminus and C-terminus assumed): the “Inhibition at 10 μM” value is less than 90%, the “Inhibition at 20 μM” value was less than 90%, the “Inhibition at 50 μM” value amounted to 100% and the “Inhibition at 100 μM” value is 100%.
For the molecule `CSCC[C@H](NC(=O)[C@@H]1CCCN1C(=O)[C@H](CO)NC(=O)CNC(=O)[C@@H]1CCCN1C(=O)[C@H](CCCCN)NC(=O)[C@H](CC(C)C)NC(=O)[C@H](C)NC(=O)[C@H](CC(C)C)NC(=O)[C@@H](NC(=O)[C@H](Cc1c[nH]cn1)NC(=O)[C@@H](N)CCCCN)C(C)C)C(=O)N[C@@H](Cc1ccc(O)cc1)C(=O)O` [compound 154] (H-KHVLALKPGSPMY-OH; N-terminus and C-terminus assumed), the “Inhibition at 50 μM” value was less than 90% and the “Inhibition at 100 μM” value is listed as less than 90%.
With `CSCC[C@H](NC(=O)[C@H](CO)NC(=O)[C@H](CO)NC(=O)CNC(=O)[C@@H]1CCCN1C(=O)[C@H](CCCCN)NC(=O)[C@H](CC(C)C)NC(=O)[C@H](CO)NC(=O)[C@H](CC(C)C)NC(=O)[C@H](Cc1c[nH]c2ccccc12)NC(=O)[C@H](CCC(=O)O)NC(=O)[C@@H]1CCCN1)C(=O)N[C@@H](Cc1ccc(O)cc1)C(=O)O` [compound 122] (H-PEWLSLKPGSSMY-OH; N-terminus and C-terminus assumed), the “Inhibition at 50 μM” value was less than 90% and the “Inhibition at 100 μM” value is listed as less than 90%.
Take `CC[C@H](C)[C@H](NC(=O)[C@H](CC(C)C)NC(=O)[C@H](CCC(N)=O)NC(=O)CNC(=O)[C@H](Cc1c[nH]c2ccccc12)NC(=O)CNC(=O)[C@@H](N)CCCCN)C(=O)N1CCC[C@H]1C(=O)NCC(=O)N[C@@H](CCC(=O)O)C(=O)N1CCC[C@H]1C(=O)N[C@@H](CCSC)C(=O)N[C@@H](Cc1ccc(O)cc1)C(=O)O` [compound 133] (H-KGWGQLIPGEPMY-OH; N-terminus and C-terminus assumed): the “Inhibition at 50 μM” value was less than 90% and the “Inhibition at 100 μM” value is reported as less than 90%.
`CC[C@H](C)[C@H](NC(=O)[C@H](CCCNC(=N)N)NC(=O)[C@H](CC(C)C)NC(=O)[C@H](CCSC)NC(=O)[C@H](Cc1c[nH]cn1)NC(=O)[C@@H](N)CCCCN)C(=O)N[C@@H](CCCCN)C(=O)N1CCC[C@H]1C(=O)NCC(=O)N[C@@H](CCC(N)=O)C(=O)N1CCC[C@H]1C(=O)N[C@@H](CCSC)C(=O)N[C@@H](Cc1ccc(O)cc1)C(=O)O` [compound 67] (H-KHMLRIKPGQPMY-OH; N-terminus and C-terminus assumed): the “Inhibition at 10 μM” value is less than 90%, the “Inhibition at 20 μM” value was found to be 97.68%, the “Inhibition at 50 μM” value was determined as 100% and the “Inhibition at 100 μM” value amounted to 100%. Moreover, the “Inhibition at 15 μM” value (peptide 15 μM) is less than 90%.
With `CC[C@H](C)[C@H](NC(=O)[C@H](Cc1c[nH]c2ccccc12)NC(=O)[C@H](Cc1c[nH]cn1)NC(=O)[C@@H](N)Cc1c[nH]c2ccccc12)C(=O)N[C@@H](CCC(N)=O)C(=O)N[C@@H](CC(C)C)C(=O)N[C@@H](CCCCN)C(=O)N[C@@H](CCCCN)C(=O)NCC(=O)N[C@@H](CCC(=O)O)C(=O)N1CCC[C@H]1C(=O)N[C@@H](CCSC)C(=O)N[C@@H](Cc1ccc(O)cc1)C(=O)O` [compound 71] (H-WHWIQLKKGEPMY-OH; N-terminus and C-terminus assumed), the “Inhibition at 10 μM” value is recorded as less than 90%, the “Inhibition at 20 μM” value was less than 90%, the “Inhibition at 50 μM” value is given as 100% and the “Inhibition at 100 μM” value was 100%.
For `CSCC[C@H](NC(=O)[C@@H]1CCCN1C(=O)[C@H](CCC(N)=O)NC(=O)CNC(=O)[C@H](CO)NC(=O)[C@H](Cc1c[nH]c2ccccc12)NC(=O)[C@H](CC(C)C)NC(=O)[C@H](CCC(N)=O)NC(=O)CNC(=O)[C@H](CO)NC(=O)[C@H](Cc1c[nH]cn1)NC(=O)[C@@H]1CCCN1)C(=O)N[C@@H](Cc1ccc(O)cc1)C(=O)O` [compound 42] (H-PHSGQLWSGQPMY-OH; N-terminus and C-terminus assumed), the “Inhibition at 50 μM” value was less than 90% and the “Inhibition at 100 μM” value was less than 90%.
As to `CSCC[C@H](NC(=O)[C@@H]1CCCN1C(=O)[C@H](CCC(N)=O)NC(=O)CNC(=O)[C@@H]1CCCN1C(=O)[C@H](CCCCN)NC(=O)[C@H](Cc1ccccc1)NC(=O)[C@H](CCCNC(=N)N)NC(=O)[C@H](CC(C)C)NC(=O)[C@@H](NC(=O)[C@H](Cc1c[nH]cn1)NC(=O)[C@@H](N)CCCCN)[C@@H](C)O)C(=O)N[C@@H](Cc1ccc(O)cc1)C(=O)O` [compound 80] (H-KHTLRFKPGQPMY-OH; N-terminus and C-terminus assumed), the “Inhibition at 10 μM” value is on record as less than 90%, the “Inhibition at 20 μM” value was 99.56%, the “Inhibition at 50 μM” value is on record as 100% and the “Inhibition at 100 μM” value was 100%. Further, the “Inhibition at 15 μM” value (peptide 15 μM) was less than 90%.
In the case of `CSCC[C@H](NC(=O)[C@@H]1CCCN1C(=O)[C@H](CCC(N)=O)NC(=O)CNC(=O)[C@@H]1CCCN1C(=O)[C@H](CCCCN)NC(=O)[C@H](Cc1ccccc1)NC(=O)[C@H](CO)NC(=O)[C@H](CC(C)C)NC(=O)[C@H](Cc1c[nH]c2ccccc12)NC(=O)[C@H](Cc1c[nH]cn1)NC(=O)[C@@H](N)CCCCN)C(=O)N[C@@H](Cc1ccc(O)cc1)C(=O)O` [compound 20] (H-KHWLSFKPGQPMY-OH; N-terminus and C-terminus assumed), the “Inhibition at 10 μM” value was less than 90%, the “Inhibition at 20 μM” value is recorded as less than 90%, the “Inhibition at 50 μM” value is given as 100% and the “Inhibition at 100 μM” value stood at 100%.
As to `CC[C@H](C)[C@H](NC(=O)[C@H](Cc1c[nH]c2ccccc12)NC(=O)[C@H](Cc1c[nH]cn1)NC(=O)[C@@H]1CCCN1)C(=O)N[C@@H](CCCCN)C(=O)N[C@@H](CC(C)C)C(=O)N[C@@H](Cc1c[nH]cn1)C(=O)N[C@H](C(=O)NCC(=O)N[C@@H](CCC(N)=O)C(=O)N1CCC[C@H]1C(=O)N[C@@H](CCSC)C(=O)N[C@@H](Cc1ccc(O)cc1)C(=O)O)[C@@H](C)O` [compound 77] (H-PHWIKLHTGQPMY-OH; N-terminus and C-terminus assumed), the “Inhibition at 10 μM” value was less than 90%, the “Inhibition at 20 μM” value is less than 90%, the “Inhibition at 50 μM” value is on record as 100% and the “Inhibition at 100 μM” value is 99.74%.
Consider `CSCC[C@H](NC(=O)[C@@H]1CCCN1C(=O)[C@H](C)NC(=O)CNC(=O)[C@H](CCCNC(=N)N)NC(=O)[C@H](CCCCN)NC(=O)[C@H](CC(C)C)NC(=O)[C@H](CCC(N)=O)NC(=O)[C@@H](NC(=O)[C@H](Cc1c[nH]c2ccccc12)NC(=O)[C@H](Cc1c[nH]cn1)NC(=O)[C@@H]1CCCN1)C(C)C)C(=O)N[C@@H](Cc1ccc(O)cc1)C(=O)O` [compound 6] (H-PHWVQLKRGAPMY-OH; N-terminus and C-terminus assumed), for which the “Inhibition at 10 μM” value is less than 90%, the “Inhibition at 20 μM” value was less than 90%, the “Inhibition at 50 μM” value is 100% and the “Inhibition at 100 μM” value stood at 100%.
For the molecule `CC[C@H](C)[C@H](NC(=O)[C@H](CCCCN)NC(=O)[C@@H](NC(=O)[C@H](CCCCN)NC(=O)[C@H](CC(C)C)NC(=O)[C@H](Cc1c[nH]c2ccccc12)NC(=O)[C@H](Cc1c[nH]cn1)NC(=O)[C@@H](N)CCCCN)[C@@H](C)CC)C(=O)NCC(=O)N[C@@H](CCC(=O)O)C(=O)N1CCC[C@H]1C(=O)N[C@@H](CCSC)C(=O)N[C@@H](Cc1ccc(O)cc1)C(=O)O` [compound 62] (H-KHWLKIKIGEPMY-OH; N-terminus and C-terminus assumed), the “Inhibition at 10 μM” value is recorded as less than 90%, the “Inhibition at 20 μM” value was determined as 100%, the “Inhibition at 50 μM” value worked out at 100% and the “Inhibition at 100 μM” value is 100%. Besides, under “peptide 15 μM”, the “Inhibition at 15 μM” value was 98.89% and the “active against Botrytis at 15 μM” value is on record as “active”.
Consider `CSCC[C@H](NC(=O)[C@@H]1CCCN1C(=O)[C@H](CCC(N)=O)NC(=O)CNC(=O)[C@@H]1CCCN1C(=O)[C@H](CCCCN)NC(=O)[C@H](Cc1ccccc1)NC(=O)[C@H](CCCCN)NC(=O)[C@H](CC(C)C)NC(=O)[C@H](CC(=O)O)NC(=O)[C@H](Cc1c[nH]cn1)NC(=O)[C@@H](N)CCCCN)C(=O)N[C@@H](Cc1ccc(O)cc1)C(=O)O` [compound 116] (H-KHDLKFKPGQPMY-OH; N-terminus and C-terminus assumed), for which the “Inhibition at 50 μM” value was less than 90% and the “Inhibition at 100 μM” value was 93.51%.
As for `CSCC[C@H](NC(=O)[C@@H]1CCCN1C(=O)[C@H](CCSC)NC(=O)CNC(=O)[C@H](CO)NC(=O)[C@H](CCCCN)NC(=O)[C@H](CC(C)C)NC(=O)[C@H](C)NC(=O)CNC(=O)[C@H](Cc1c[nH]c2ccccc12)NC(=O)[C@H](CO)NC(=O)[C@@H](N)Cc1c[nH]c2ccccc12)C(=O)N[C@@H](Cc1ccc(O)cc1)C(=O)O` [compound 172] (H-WSWGALKSGMPMY-OH; N-terminus and C-terminus assumed), the “Inhibition at 50 μM” value is less than 90% and the “Inhibition at 100 μM” value was less than 90%.

The values above are taken from patent US20250382332A1, “NOVEL ALPHA-FACTOR BASED PEPTIDES WITH ANTIFUNGAL ACTIVITY” (INVAIO SCIENCES, INC., priority 2024, published 2025).
